Assay results from US9126966B2, “Cationic lipids and methods of use thereof” (Protiva Biotherapeutics, Inc., priority 2011, dated 2015).

Tested on: Liver ApoB mRNA
Test: Liver ApoB mRNA knockdown after IV injection of LNP formulations, branched DNA assay (QuantiGene) relative to GAPDH
Type: in vivo, female Balb/c mice
Details: 1:57 LNP with ApoB siRNA; for ApoB knockdown relative PBS control / ApoB knockdown relative to PBS control: liver mRNA at 48 hours; for ApoB knockdown relative to PBS control: IV 0.033 mg/kg total siRNA, standard deviation in brackets; for ApoB-silencing activity of LNP formulations (in words): IV 0.033 mg/kg, summary of Table 3
Protocol: (§1) LNP formulations were administered by IV injection at 0.033 mg/kg total siRNA dose into female Balb/c mice (n=3 per group). Liver ApoB mRNA levels were evaluated at 48 hours after LNP administration by a branched DNA assay (QuantiGene assay) to assess ApoB mRNA relative to the housekeeping gene GAPDH.
as §1, with “intravenous” for “IV”, “doses of 0.0075, 0.015 and 0.03” for “0.033”, “evaluated” for “evaluated at”, “and standardized” for “to assess ApoB mRNA”

Compound	ApoB knockdown relative PBS control (IV 0.0075 mg/kg total siRNA) [%]	ApoB knockdown relative PBS control (IV 0.015 mg/kg total siRNA) [%]	ApoB knockdown relative PBS control (IV 0.03 mg/kg total siRNA) [%]	ApoB knockdown relative to PBS control	ApoB-silencing activity of LNP formulations (in words)	Potency of LNP formulations compared with reference lipid (in words) (IV 0.0075, 0.015 and 0.03 mg/kg, summary of Table 5)
CCCCC/C=C\C/C=C\CCCCCCCCC1(CCCCCCCC/C=C\C/C=C\CCCCC)OCC(CCN(C)C)O1 (centres unmarked) [Compound C2K, 2,2-dilinoleyl-4-(2-dimethylaminoethyl)[1,3]-dioxolane, reference compound]	−25	−41	−54			
CCCCC/C=C\C/C=C\CCCCCCCCC1CC(CCCCCCC/C=C\C/C=C\CCCCC)OC(CCN(C)C)O1 (centres unmarked) [Compound 8, 2-(4-((8Z,11Z)-heptadeca-8,11-dien-1-yl)-6-((9Z,12Z)-octadeca-9,12-dien-1-yl)-1,3-dioxan-2-yl)-N,N-dimethylethanamine]				−71 (±2.7) %	particularly potent ApoB-silencing activity	
CCCCC/C=C\C/C=C\CCCCCCCCC1CC(CCCCCCC/C=C\C/C=C\CCCCC)OC(CCCN(C)C)O1 (centres unmarked) [Compound 9, 3-(4-((8Z,11Z)-heptadeca-8,11-dien-1-yl)-6-((9Z,12Z)-octadeca-9,12-dien-1-yl)-1,3-dioxan-2-yl)-N,N-dimethylpropan-1-amine]	−39	−51	−73	−80 (±3.3) %	particularly potent ApoB-silencing activity	more potent than LNP formulations containing C2K
